In PMC4109837 (2014):
Each block holds one compound with its values, some of them ahead of it.

Tests used:
[1] = test system: NOX-S93 (L-RNA, aptamer, four 2'-deoxyribonucleotides (positions not given; Figure 1)) GCGUGAAUAGCCGUUGAAACGCCUUUAGAGAAGCACUAGCACGC; test: neutralisation in S1PR3 calcium release cell assay, direct; details: UltraCHO medium, 20 mM Hepes
[2] = test system: NOX-S93 (L-RNA, aptamer, four 2'-deoxyribonucleotides (positions not given; Figure 1)) GCGUGAAUAGCCGUUGAAACGCCUUUAGAGAAGCACUAGCACGC; test: competition in S1PR3 calcium release cell assay; details: UltraCHO medium, 20 mM Hepes, 100 nM NOX-S93, 10 nM S1P

binding ([1]; 50 nM LPA, no inhibition): no
Compound: CCCCCCCC/C=C\CCCCCCCC(=O)OC[C@@H](O)COP(=O)(O)O

binding ([2]; up to 3 μM competitor): no
Compound: CCCCCCCCCCCCC/C=C/[C@@H](O)[C@H](CO)NC(C)=O

binding ([2]; up to 1 μM competitor): no
Compound: CCCCCCCCCCCCC/C=C/[C@@H](O)[C@@H](N)CO

binding ([1]; 30 nM dihydro-S1P): yes
Compound: CCCCCCCCCCCCCCC[C@@H](O)[C@@H](N)COP(=O)(O)O

binding ([2]; up to 300 nM competitor): no
Compound: CCCCCCCCCCCCC/C=C/[C@@H](O)[C@@H](N)COP(=O)([O-])OCC[N+](C)(C)C

binding ([1]; 10 nM C17-S1P): yes
Compound: CCCCCCCCCCCC/C=C/[C@@H](O)[C@@H](N)COP(=O)(O)O

binding ([1]; 10 nM S1P): yes
Compound: CCCCCCCCCCCCC/C=C/[C@@H](O)[C@@H](N)COP(=O)(O)O

binding ([1]; 80 nM C20-S1P): yes
Compound: CCCCCCCCCCCCCCC/C=C/[C@@H](O)[C@@H](N)COP(=O)(O)O

binding ([2]; up to 3 μM competitor): no
Compound: CCCCCCCCCCCCC/C=C/[C@@H](O)[C@H](COP(=O)(O)O)NC(=O)CCCCCCCCCCCCCCC
